Read-outs that look alike come from different tables or passages of the source.

For 13 compounds, IC50 results are on record in patent US20240116985A1, “STAPLED PEPTIDES AND METHODS THEREOF” (priority 2020, published 2024).

This experiment concerns the target T1, full-length beta-Catenin (Uniprot ID P35222) (Homo sapiens, UniProt P35222).
T1 construct: 10 nM full-length beta-Catenin (Uniprot ID P35222)
T1 sequence (P35222 1-781): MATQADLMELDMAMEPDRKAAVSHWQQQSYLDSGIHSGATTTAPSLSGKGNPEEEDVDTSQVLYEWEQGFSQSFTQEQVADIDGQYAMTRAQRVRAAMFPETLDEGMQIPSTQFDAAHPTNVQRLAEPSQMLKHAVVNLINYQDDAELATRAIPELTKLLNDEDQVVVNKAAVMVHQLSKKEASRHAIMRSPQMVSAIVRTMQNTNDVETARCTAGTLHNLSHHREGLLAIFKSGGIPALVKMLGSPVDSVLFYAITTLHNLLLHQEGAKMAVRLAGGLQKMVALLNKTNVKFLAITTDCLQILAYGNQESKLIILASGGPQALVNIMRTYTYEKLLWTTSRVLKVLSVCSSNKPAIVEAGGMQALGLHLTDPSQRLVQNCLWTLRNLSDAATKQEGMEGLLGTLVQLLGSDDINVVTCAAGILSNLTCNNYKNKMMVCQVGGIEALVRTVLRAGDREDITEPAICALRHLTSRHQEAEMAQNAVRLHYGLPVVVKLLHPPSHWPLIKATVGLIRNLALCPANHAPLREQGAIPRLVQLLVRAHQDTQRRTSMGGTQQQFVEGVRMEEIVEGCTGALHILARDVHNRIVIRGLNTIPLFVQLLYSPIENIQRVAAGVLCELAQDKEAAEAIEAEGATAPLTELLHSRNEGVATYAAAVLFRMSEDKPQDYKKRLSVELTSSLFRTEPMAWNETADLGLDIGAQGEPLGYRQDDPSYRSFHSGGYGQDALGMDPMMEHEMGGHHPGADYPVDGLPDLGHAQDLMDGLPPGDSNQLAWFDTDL
Description: Fluorescence polarization IC50 (beta-catenin / 5FAM-TCF4 10-53 competition). Type of experiment: binding. The note with it: fluorescence polarization. On the technique in general: Fluorescence polarisation rises when a labelled molecule tumbles more slowly, as on binding a larger partner.

The mark [1] stands for this setting: beta-catenin, read-out: FP EC50.

For the compound `CC(=O)N1CCC[C@]12CC=CCCCC1(CCCC=CCCCCCC[C@@](C)(C(=O)N[C@@H](Cc3ccsc3)C(=O)N[C@@H](Cc3csc4ccccc34)C(=O)N[C@@H](CCC(N)=O)C(N)=O)NC(=O)[C@H](CC(N)=O)NC(=O)[C@H](Cc3ccccc3)NC(=O)[C@H](C)NC(=O)[C@H](C)NC(=O)[C@H](CN(CC(=O)O)C(C)C)NC(=O)[C@H](CC(=O)O)NC1=O)NC(=O)[C@H](CC(C)(C)C)NC(=O)[C@H](CC(=O)O)NC2=O` (stereo partly drawn) [I-1452, Ac-PL3-Asp-Npg-B5-Asp-[iPr]GA-Ala-Ala-Phe-Asn-S8-3Thi-BztA-Gln-NH2], the IC50 runs as follows: under setting [1], 66 nM; (read-out: beta-Catenin FP IC50) 66 nM.

On to `CC(=O)N1CCC[C@]12CC=CCCCC1(CCCC=CCCCCCC[C@@](C)(C(=O)N[C@@H](Cc3ccsc3)C(=O)N[C@@H](Cc3csc4ccccc34)C(=O)N[C@@H](CCC(N)=O)C(N)=O)NC(=O)[C@H](CC(N)=O)NC(=O)[C@H](Cc3ccccc3)NC(=O)[C@H](C)NC(=O)[C@H](C)NC(=O)[C@H](CN(CC(=O)O)C(C)C)NC(=O)[C@H](CC(=O)O)NC1=O)NC(=O)[C@H](CC(C)(C)C)NC(=O)[C@H](CC(=O)O)NC2=O` (stereo partly drawn) [I-1453, Ac-PL3-Asp-Npg-B5-Asp-[iPr]GA-Ala-Ala-Phe-Asn-S8-3Thi-BztA-Gln-NH2], for which the IC50 runs as follows: under setting [1], 52 nM; (read-out: beta-Catenin FP IC50) 52 nM. `CC(=O)N1CCC[C@]12CC=CCCCC1(CCCC=CCCCOC(=O)N3CC[C@@](C(=O)N[C@@H](Cc4ccsc4)C(=O)N[C@@H](Cc4csc5ccccc45)C(=O)N[C@@H](Cc4c[nH]cn4)C(N)=O)(C3)NC(=O)[C@H](CCC(N)=O)NC(=O)[C@H](Cc3ccccc3)NC(=O)[C@H](C)NC(=O)[C@H](C)NC(=O)[C@H](CC(=O)O)NC(=O)[C@H](CC(=O)O)NC1=O)NC(=O)[C@H](CC(C)(C)C)NC(=O)[C@H](CC(=O)O)NC2=O` (stereo partly drawn) [I-1459, Ac-PL3-Asp-Npg-B5-Asp-Asp-Ala-Ala-Phe-Gln-PyrS2-3Thi-BztA-His-NH2]: the IC50 (read-out: beta-Catenin FP IC50) came to 5 nM. For the compound `CC(=O)N1CCC[C@]12CC=CCCCC1(CCCC=CCCCOC(=O)N3CC[C@@](C(=O)N[C@@H](Cc4ccsc4)C(=O)N[C@@H](Cc4csc5ccccc45)C(=O)N[C@@H](Cc4c[nH]cn4)C(N)=O)(C3)NC(=O)[C@H](CCC(N)=O)NC(=O)[C@H](Cc3ccccc3)NC(=O)[C@H](C)NC(=O)[C@H](C)NC(=O)[C@H](CC(=O)O)NC(=O)[C@H](CC(=O)O)NC1=O)NC(=O)[C@H](CC(C)(C)C)NC(=O)[C@H](CC(=O)O)NC2=O` (stereo partly drawn) [I-1460, Ac-PL3-Asp-Npg-B5-Asp-Asp-Ala-Ala-Phe-Gln-PyrS2-3Thi-BztA-His-NH2], the IC50 (read-out: beta-Catenin FP IC50) was 7 nM. As for `CC(=O)N1CCC[C@]12CC=CCCCC1(CCCC=CCCCOC(=O)N3CC[C@@](C(=O)N[C@@H](Cc4ccccc4Cl)C(=O)N[C@@H](Cc4csc5ccccc45)C(=O)N[C@@H](CCC(N)=O)C(N)=O)(C3)NC(=O)[C@H]([C@@H](C)O)NC(=O)[C@H](Cc3ccccc3)NC(=O)[C@H](C)NC(=O)[C@H](C)NC(=O)[C@H](CN(CC(=O)O)CC(F)(F)F)NC(=O)[C@H](CC(=O)O)NC1=O)NC(=O)[C@H](CC(C)(C)C)NC(=O)[C@H](CC(=O)O)NC2=O` (stereo partly drawn) [I-1463, Ac-PL3-Asp-Npg-B5-Asp-TfeGA-Ala-Ala-Phe-Thr-PyrS2-2C1F-BztA-Gln-NH2], the IC50 (read-out: beta-Catenin FP IC50) turned out to be 18 nM. `CC(=O)N1CCC[C@]12CCCCCCC1(CCCCCCCCOC(=O)N3CC[C@@](C(=O)N[C@@H](Cc4ccccc4Cl)C(=O)N[C@@H](Cc4csc5ccccc45)C(=O)N[C@@H](CCC(N)=O)C(N)=O)(C3)NC(=O)[C@H](CC(N)=O)NC(=O)[C@H](Cc3ccccc3)NC(=O)[C@H](C)NC(=O)[C@H](C)NC(=O)[C@H](CC(=O)O)NC(=O)[C@H](CC(=O)O)NC1=O)NC(=O)[C@H](CC(C)(C)C)NC(=O)[C@H](CC(=O)O)NC2=O` (stereo partly drawn) [I-1464, Ac-PL3-Asp-Npg-B5-Asp-Asp-Ala-Ala-Phe-Asn-PyrS2-2C1F-BztA-Gln-NH2]: the IC50 (read-out: beta-Catenin FP IC50) came out at 168 nM. Still for that read-out and setting: the same measure for `CC(=O)N1CCC[C@]12CC=CCCCC1(CCCC=CCCCOC(=O)N3CC[C@@](C(=O)N[C@@H](Cc4ccsc4)C(=O)N[C@@H](Cc4csc5ccccc45)C(=O)N[C@@H](CCC(N)=O)C(N)=O)(C3)NC(=O)[C@H](CC(C)C)NC(=O)[C@H](Cc3ccccc3)NC(=O)[C@H](C)NC(=O)[C@H](C)NC(=O)[C@H](CC(=O)O)NC(=O)[C@H](CC(=O)O)NC1=O)NC(=O)[C@H](CCCCNC(=O)CC[C@@H](C)[C@H]1CC[C@H]3[C@@H]4CC[C@@H]5C[C@H](O)CC[C@]5(C)[C@H]4CC[C@]13C)NC(=O)[C@H](CC(=O)O)NC2=O` (stereo partly drawn) [I-1469, Ac-PL3-Asp-[lithocholate]-Lys-B5-Asp-Asp-Ala-Ala-Phe-Leu-PyrS2-3Thi-BztA-Gln-NH2]: 95 nM; for `CC(=O)N1CCC[C@]12CC=CCCCC1(CCCC=CCCCOC(=O)N3CC[C@@](C(=O)N[C@@H](Cc4ccsc4)C(=O)N[C@@H](Cc4csc5ccccc45)C(=O)N[C@@H](CCC(N)=O)C(N)=O)(C3)NC(=O)[C@H](CC(C)C)NC(=O)[C@H](Cc3ccccc3)NC(=O)[C@H](CCCCNC(=O)CC[C@@H](C)[C@H]3CC[C@H]4[C@@H]5CC[C@@H]6C[C@H](O)CC[C@]6(C)[C@H]5CC[C@]34C)NC(=O)[C@H](C)NC(=O)[C@H](CC(=O)O)NC(=O)[C@H](CC(=O)O)NC1=O)NC(=O)[C@H](CC(C)(C)C)NC(=O)[C@H](CC(=O)O)NC2=O` (stereo partly drawn) [I-1473, Ac-PL3-Asp-Npg-B5-Asp-Asp-Ala-[lithocholate]-Lys-Phe-Leu-PyrS2-3Thi-BztA-Gln-NH2]: 224 nM. Turning to `CC(=O)N1CCC[C@]12CC=CCCCC1(CCCC=CCCCOC(=O)N3CC[C@@](C(=O)N[C@@H](Cc4ccsc4)C(=O)N[C@@H](Cc4csc5ccccc45)C(=O)N[C@@H](CCC(N)=O)C(N)=O)(C3)NC(=O)[C@H](CC(C)C)NC(=O)[C@H](Cc3ccccc3)NC(=O)[C@H](CCCCNC(=O)C34CC5(C)CC(C)(CC(C)(C5)C3)C4)NC(=O)[C@H](C)NC(=O)[C@H](CC(=O)O)NC(=O)[C@H](CC(=O)O)NC1=O)NC(=O)[C@H](CC(C)(C)C)NC(=O)[C@H](CC(=O)O)NC2=O` (stereo partly drawn) [I-1475, Ac-PL3-Asp-Npg-B5-Asp-Asp-Ala-[Me3AdamantC]-Lys-Phe-Leu-PyrS2-3Thi-BztA-Gln-NH2], where the note is “read-out: beta-Catenin FP IC50”, the IC50 amounted to 113 nM.

With `CC(=O)N1CCC[C@]12CC=CCCCC1(CCCC=CCCCOC(=O)N3CC[C@@](C(=O)N[C@@H](Cc4ccsc4)C(=O)N[C@@H](Cc4csc5ccccc45)C(=O)N[C@@H](CCC(N)=O)C(=O)N[C@@H](CCCCNC(=O)CC[C@@H](C)[C@H]4CC[C@H]5[C@@H]6CC[C@@H]7C[C@H](O)CC[C@]7(C)[C@H]6CC[C@]45C)C(N)=O)(C3)NC(=O)[C@H](CC(C)C)NC(=O)[C@H](Cc3ccccc3)NC(=O)[C@H](C)NC(=O)[C@H](C)NC(=O)[C@H](CC(=O)O)NC(=O)[C@H](CC(=O)O)NC1=O)NC(=O)[C@H](CC(C)(C)C)NC(=O)[C@H](CC(=O)O)NC2=O` (stereo partly drawn) [I-1477, Ac-PL3-Asp-Npg-B5-Asp-Asp-Ala-Ala-Phe-Leu-PyrS2-3Thi-BztA-Gln-[lithocholate]-Lys-NH2], the IC50 (read-out: beta-Catenin FP IC50) came out at 148 nM. Take `CC(=O)N1CCC[C@]12CC=CCCCC1(CCCC=CCCCOC(=O)N3CC[C@@](C(=O)N[C@@H](Cc4ccsc4)C(=O)N[C@@H](Cc4csc5ccccc45)C(=O)N[C@@H](CCC(N)=O)C(=O)N[C@@H](CCCCNC(=O)C45CC6(C)CC(C)(CC(C)(C6)C4)C5)C(N)=O)(C3)NC(=O)[C@H](CC(C)C)NC(=O)[C@H](Cc3ccccc3)NC(=O)[C@H](C)NC(=O)[C@H](C)NC(=O)[C@H](CC(=O)O)NC(=O)[C@H](CC(=O)O)NC1=O)NC(=O)[C@H](CC(C)(C)C)NC(=O)[C@H](CC(=O)O)NC2=O` (stereo partly drawn) [I-1479, Ac-PL3-Asp-Npg-B5-Asp-Asp-Ala-Ala-Phe-Leu-PyrS2-3Thi-BztA-Gln-[Me3AdamantC]-Lys-NH2]: for the setting “read-out: beta-Catenin FP IC50”, the IC50 came to 173 nM.

Consider `CC(=O)N1CCC[C@]12CC=CCCCC1(CCCC=CCCCOC(=O)N3CC[C@@](C(=O)N[C@@H](Cc4ccsc4)C(=O)N[C@@H](Cc4csc5ccccc45)C(=O)N[C@@H](CCC(N)=O)C(N)=O)(C3)NC(=O)[C@H](CC(C)C)NC(=O)[C@H](Cc3ccccc3)NC(=O)[C@H](C)NC(=O)[C@H](CCCN3CCOCC3)NC(=O)[C@H](CC(=O)O)NC(=O)[C@H](CC(=O)O)NC1=O)NC(=O)[C@H](CC(C)(C)C)NC(=O)[C@H](CC(=O)O)NC2=O` (stereo partly drawn) [I-1481, Ac-PL3-Asp-Npg-B5-Asp-Asp-MorphNva-Ala-Phe-Leu-PyrS2-3Thi-BztA-Gln-NH2], for which the IC50 (read-out: beta-Catenin FP IC50) is 7 nM. Regarding `CC(=O)N1CCC[C@]12CC=CCCCC1(CCCC=CCCCOC(=O)N3CC[C@@](C(=O)N[C@@H](Cc4ccccc4)C(=O)N[C@@H](Cc4csc5ccccc45)C(=O)N[C@@H](CCC(N)=O)C(N)=O)(C3)NC(=O)[C@H](CC(C)C)NC(=O)[C@H](Cc3ccc(-c4cccnc4)cc3)NC(=O)[C@H](C)NC(=O)[C@H](C)NC(=O)[C@H](CC(=O)O)NC(=O)[C@H](CC(=O)O)NC1=O)NC(=O)[C@H](CC(C)(C)C)NC(=O)[C@H](CC(=O)O)NC2=O` (stereo partly drawn) [I-1490, Ac-PL3-Asp-Npg-B5-Asp-Asp-Ala-Ala-[3Py]4SF-Leu-PyrS2-Phe-BztA-Gln-NH2], where the note is “read-out: beta-Catenin FP IC50”, the IC50 turned out to be 226 nM.
